Among the data in article PMC12040169 (PLOS Biology, 2025) are viability values, retold here.

The data set can be described thus: in vitro. The following applies: human, hela cells, % viability.
On to `CC(=O)N1CCC(C(=O)N2CCC(C(=O)NC(c3ccccn3)c3cccs3)CC2)CC1` (stereo not shown) [CBK060118], for which the viability at 28.5 h, 10 µM is 95%. For `Cc1cccc(-c2n[nH]c(=S)n2CC(=O)NCCCS(=O)(=O)Cc2ccccc2)c1` [CBK297942], the viability at 28.5 h, 10 µM was 103%. Take `O=S(=O)(c1ccc(-c2ccccc2)cc1)N1CCCN(CCCO)CC1` [CBK063043]: the viability at 28.5 h, 10 µM came out at 102%. `O=C(C1CCCN(CC(O)c2cccs2)C1)N1CCCCCC1` (stereo not shown) [CBK282117]: the viability at 28.5 h, 10 µM worked out at 100%. The figure for `COc1nccnc1OC1CCN(CCCC#N)CC1` [CBK084255] is 90%; for `CCCCN(C)c1c(CC)nc2ccc(C(=O)N3CCNC(=O)C3)cn12` [CBK145460] it is 87.9%; for `CC1=NN(c2ccccc2)C(=O)C1C(=O)c1ccc(Br)cc1` (stereo not shown) [CBK067771] it is 98.1%. As for `O=C(c1ccc2[nH]c(=O)[nH]c2c1)N1CCCC2(CCN(C(=O)c3cc(F)c(F)cc3F)C2)C1` (stereo not shown) [CBK131566], the viability at 28.5 h, 10 µM was 106%. Regarding `O=C(O)c1ccc2c(c1)CCN2S(=O)(=O)c1ccc(S(=O)(=O)N2CCOCC2)cc1` [CBK295625], the viability at 28.5 h, 10 µM turned out to be 97.1%. For the molecule `CN(C)c1ncccc1OC1CCN(c2nnc(C(F)(F)F)s2)C1` (stereo not shown) [CBK304789], the viability at 28.5 h, 10 µM stood at 97.1%. For the molecule `O=C(O)C(c1c[nH]c2ccc(OCc3ccccc3)cc12)N1CCCC1` (stereo not shown) [CBK286686], the viability at 28.5 h, 10 µM came to 97.6%. Regarding `COc1ccccc1N1CCN(C[C@H]2C[N@@]3CC[C@H]2C[C@@H]3CNS(C)(=O)=O)CC1` [CBK288770], the viability at 28.5 h, 10 µM was determined as 87.5%.

For the molecule `Cc1ccc2c(CC(=O)N(C)CCc3cn[nH]c3)coc2c1` [CBK283239], the viability at 28.5 h, 10 µM came out at 90.8%.

For the molecule `COc1ccc(Nc2ccc(-c3cccc(OC(F)(F)F)c3)cn2)cn1` [CBK037022], the viability at 28.5 h, 10 µM stood at 100%.

Take `COc1cc(/C=C(\C#N)c2nn(-c3ccccc3)c(N)c2C#N)ccc1Oc1ccc(C(F)(F)F)cc1[N+](=O)[O-]` [CBK262484]: the viability at 28.5 h, 10 µM was 92.7%. As for `CC(=O)N1CCOC(CNc2nc(C(C)(C)C)nc3c2cnn3C)C1` (stereo not shown) [CBK307469], the viability at 28.5 h, 10 µM amounted to 89.4%. With `O=C(c1cccs1)N1CCN(Cc2cc(=O)n3ccsc3n2)CC1` [CBK305872], the viability at 28.5 h, 10 µM turned out to be 119%. With `CCOC(=O)C(NC(=O)N(C1=NCC(C)S1)C1CCCCC1)(OC)C(F)(F)F` (stereo not shown) [CBK021431], the viability at 28.5 h, 10 µM is 96.8%. The value for `CCc1nccn1CCN1CCCC(COc2ccccc2F)C1` (stereo not shown) [CBK307416] was 93.4%; that for `O=C(O)c1ccc(CN2C(=O)c3ccc(C(=O)c4ccc(C(=O)O)cc4)cc3C2=O)cc1` [CBK262831] was 102%; that for `Cc1ccc(C)c(S(=O)(=O)NC(Cc2c[nH]c3ccccc23)C(=O)O)c1` (stereo not shown) [CBK266816] was 105%.

On to `O=C(CN1CCCN(c2nccs2)CC1)Nc1cc(Cl)ccc1Cl` [CBK305921], for which the viability at 28.5 h, 10 µM amounted to 99.7%. Consider `CC(=O)N1CCN(C(C(=O)O)c2c[nH]c3cc(NC(=O)c4ccccc4)ccc23)CC1` (stereo not shown) [CBK286680], for which the viability at 28.5 h, 10 µM amounted to 84.9%.

Take `CC(NC(=O)CCc1cn(C)c2ccccc12)c1ccccn1` (stereo not shown) [CBK281889]: the viability at 28.5 h, 10 µM came out at 93.1%. As to `CN(C)S(=O)(=O)N1CCN(C(=O)N(c2ccccc2)c2ccccc2)CC1` [CBK267466], the viability at 28.5 h, 10 µM was 96.7%. As for `COC(Cc1nc2ccccc2s1)C(=O)O` (stereo not shown) [CBK265806], the viability at 28.5 h, 10 µM was 101%.

Turning to `O=C(CN1C(=O)c2ccccc2S1(=O)=O)N(Cc1ccccc1)Cc1ccccc1` [CBK265982], the viability at 28.5 h, 10 µM turned out to be 107%. For the molecule `COc1ccc2[nH]c3c(c2c1)CCNC31CCN(CCC2CCCCC2)C1` (stereo not shown) [CBK040111T], the viability at 28.5 h, 10 µM was 90.7%.

With `Cn1nccc1CN1CCCC(COc2ccccc2F)C1` (stereo not shown) [CBK281663], the viability at 28.5 h, 10 µM is 87.2%. Consider `Cc1cc(C)cc(-c2nnc(SCCC(=O)NC(N)=O)o2)c1` [CBK295164], for which the viability at 28.5 h, 10 µM came out at 107%.

Regarding `CC(C)(C)C1CCC(OCC(O)CN2CCN(CCO)CC2)CC1` (stereo not shown) [CBK278263C], the viability at 28.5 h, 10 µM came out at 89.8%. On to `Cc1ccnc2c1C(=O)C1(CC2)CCN(C(=O)Nc2ccc(F)cc2F)CC1` [CBK059553T], for which the viability at 28.5 h, 10 µM amounted to 91.3%. On to `Cc1cccc(-c2nnn(CC(=O)O)n2)c1` [CBK068105], for which the viability at 28.5 h, 10 µM stood at 102%. For the molecule `CCCCC1C(=O)N(C)CCN1C(=O)c1cc(C)c(CC)n(C)c1=O` (stereo not shown) [CBK306527], the viability at 28.5 h, 10 µM is 91.2%. In the case of `CCN(CC)CCCNc1nc2ccc(O)cc2s1` [CBK023880C], the viability at 28.5 h, 10 µM was 105%. The value for `O=C(Nc1nc2c(s1)CCCCC2)C1CCN(S(=O)(=O)c2ccc(F)cc2)C1` (stereo not shown) [CBK285708] was 111%; that for `c1ccc(CN(Cc2ccccc2)Cn2c3ccccc3c3ccccc32)cc1` [CBK263575] was 93.6%. Turning to `Cc1cc(NC(=O)c2ccco2)nc2c1c(=O)oc1ccccc12` [CBK291124], the viability at 28.5 h, 10 µM stood at 110%.

Take `COc1ccc(CN2C(=S)N(CC3CCCCC3)[C@H]3[C@@H]2[C@H]2OC(=O)[C@@H]3C[C@H]2O)cc1` [CBK288936]: the viability at 28.5 h, 10 µM was 117%.

`CC(=O)N1CCC(C(=O)NC(=O)NCCc2ccccc2)CC1` [CBK034851]: the viability at 28.5 h, 10 µM was determined as 96.9%. In the case of `CS(=O)(=O)N1CCc2c([nH]c3ccccc23)C12CCN(Cc1ccccc1)C2` (stereo not shown) [CBK059460], the viability at 28.5 h, 10 µM turned out to be 102%. With `CC(C)(CNC(=O)Cn1cccc(C(=O)Nc2ccc(F)cc2)c1=O)c1ccccc1F` [CBK286067], the viability at 28.5 h, 10 µM turned out to be 97.4%. The value for `Cc1[nH]c2ccccc2c1C(=O)CSc1nncc2ccccc12` [CBK297912] was 92.1%; that for `Cc1ccc(S(=O)(=O)Nc2ccc(C(C)C)cc2)cc1C(=O)O` [CBK297766] was 84.2%; that for `COc1ccc(Oc2nccc(N3CCCN(CCc4ccc5ccccc5c4)CC3)n2)cc1OC` [CBK084164] was 87%. For the molecule `CC(=O)N1CCC[C@H]2NC(=O)CNC(=O)C3(C/C=C/C[C@H]21)CCN(C(=O)c1cc(C)no1)CC3` [CBK292176], the viability at 28.5 h, 10 µM was found to be 104%. On to `CSc1nc2sc3c(c2c(=O)n1-c1ccccc1C)CC(C)(C)OC3` [CBK091875], for which the viability at 28.5 h, 10 µM turned out to be 99.1%.

`Cc1cccc(CN(CC(=O)Nc2ccc3c(c2)OCCO3)S(=O)(=O)c2ccc(Cl)cc2)c1` [CBK264910]: the viability at 28.5 h, 10 µM was determined as 91.9%. With `COC(=O)c1c(NC(=O)c2ccncc2)sc2c1CCC2` [CBK262637], the viability at 28.5 h, 10 µM amounted to 88.1%.

`CCSC1=C(C#N)C(=O)NC(c2ccccc2O)S1` (stereo not shown) [CBK293971]: the viability at 28.5 h, 10 µM came to 109%. Consider `COc1c(Br)cc(/C=C2\SC(=O)NC2=O)cc1Br` [CBK102455], for which the viability at 28.5 h, 10 µM stood at 101%. For the molecule `Cc1nccn1CCCn1cncc1-c1ccc2c(c1)CC(C)N2C` (stereo not shown) [CBK281818], the viability at 28.5 h, 10 µM is 87.8%.

Consider `Cc1cc2c(s1)c1cnn(CC(=O)N(C)C)c(=O)c1n2C` [CBK284231], for which the viability at 28.5 h, 10 µM turned out to be 99.5%. `COc1cccc(CNc2nccc(-n3nc(C)cc3C)n2)c1` [CBK288612]: the viability at 28.5 h, 10 µM is 96%.

Consider `CC(CN(C)C)C(=O)c1cn(C)c2ccccc12` (stereo not shown) [CBK015540], for which the viability at 28.5 h, 10 µM is 102%.

As for `Cc1[nH]c2ccccc2c1C(CC(=O)c1ccc(Br)cc1)C(=O)O` (stereo not shown) [CBK269480], the viability at 28.5 h, 10 µM is 90.9%. In the case of `CN(C)C(=O)c1ccc(Cn2nc(C(=O)NCCOc3ccccc3)c3ccccc32)cc1` [CBK047700], the viability at 28.5 h, 10 µM was found to be 91.7%.

Turning to `CN(C)c1ccc(-c2nc(C(F)(F)F)nn2C)cn1` [CBK307202], the viability at 28.5 h, 10 µM is 87.1%.

On to `COc1ccc(C2CC(c3ccccc3)=NN2c2ccc(S(N)(=O)=O)cc2)cc1OC` (stereo not shown) [CBK268193], for which the viability at 28.5 h, 10 µM is 107%.

On to `COc1ccc(C(=O)NCCCc2nc3ccccc3[nH]2)cc1OC` [CBK270018], for which the viability at 28.5 h, 10 µM turned out to be 101%. The figure for `O=C(Cn1c(-c2ccc(F)cc2)cc2cccnc21)NC1CC1` [CBK284861] is 103%. The figure for `CC(C)(Oc1ccc(F)cc1)C(=O)N1CCC(C(=O)NCCc2ccccc2)C1` (stereo not shown) [CBK285702] is 101%; for `CCC(CO)Nc1nccnc1-c1ccsc1` (stereo not shown) [CBK036606] it is 107%; for `COc1ccc(OC(C)C(=O)Nc2cc3oc4ccccc4c3cc2OC)cc1` (stereo not shown) [CBK266751] it is 100%.

Consider `Cc1ccc(CN(CCCn2ccnc2)Cc2ccccc2O)o1` [CBK283189], for which the viability at 28.5 h, 10 µM was determined as 99.8%. On to `COc1ccc(-c2ccc(C#N)c(SCc3ccncc3)n2)cc1` [CBK269883], for which the viability at 28.5 h, 10 µM came to 102%. The figure for `CC(C)c1ccc(N2C(=O)[C@@H]3C[C@@H](NC(=O)c4cccs4)CCN3C2=O)cc1` [CBK289541] is 93.1%; for `Cc1ccc2nc(NC(=O)C3COc4ccccc4O3)sc2c1` (stereo not shown) [CBK287366] it is 103%; for `CCCn1c(SC(C)C(=O)Nc2ccc(S(=O)(=O)NC(C)C)cc2)n[nH]c1=O` (stereo not shown) [CBK295169] it is 87.9%.

For the molecule `COc1ccnc(N2CCN(C(=O)c3cc(C(C)=O)cn3C)CC2)n1` [CBK306272], the viability at 28.5 h, 10 µM amounted to 91.2%. In the case of `O=C(CCC1CCCC1)Nc1nnc[nH]1` [CBK266406], the viability at 28.5 h, 10 µM stood at 100%. For the molecule `CCCCc1nccn1CCn1ccnc1CCCC` [CBK020437], the viability at 28.5 h, 10 µM was found to be 88.7%. As to `C=CCNC(=O)C1CCCN(c2nc3ccccc3n2C)C1` (stereo not shown) [CBK282872], the viability at 28.5 h, 10 µM came out at 105%.

In the case of `CC(C)Nc1nccnc1Sc1cccc(O)c1` [CBK093725], the viability at 28.5 h, 10 µM was found to be 111%. Regarding `CC(C)(C)OC(=O)N1CCC(Oc2nccc3c2ccn3Cc2ccc(S(C)(=O)=O)cc2)CC1` [CBK132881], the viability at 28.5 h, 10 µM stood at 89.2%. The figure for `CN(C)C(=O)c1ccc(Cn2nc(NC(=O)OCc3ccccc3)c3ccccc32)cc1` [CBK048578] is 89.6%; for `CC(C)NC(=O)N1Cc2nc[nH]c2C[C@H]1c1nc(-c2ccccc2)no1` [CBK288996] it is 83%; for `O=C(C1CCCC1)N1CCC(c2nnc(-c3ccsc3)o2)CC1` [CBK283379] it is 86.5%. `O=C(NCCc1nc2ccccc2[nH]1)Nc1ccccc1` [CBK261803]: the viability at 28.5 h, 10 µM came out at 103%.

As a reminder, the viability is a read-out of living cells in per cent, often relative to untreated cells.
